Assay results from patent publication US20200275656A1, “TRISUBSTITUTEDSILYLMETHYLPHENOXYQUINOLINES AND ANALOGUES” (Bayer Aktiengesellschaft, priority 2017, published 2020).

System: Colletotrichum lindemuthianum
Experiment: Example B: in vitro cell test on Colletotrichum lindemuthianum
Format: cell-based
Conditions: 120 h, 20 ppm of active ingredient, liquid culture, 5 days incubation, read-out: efficacy (inhibition of fungal growth)

Structure (SMILES) | inhibition at 20 ppm
C[Si](C)(Cc1ccccc1Oc1cnc2c(F)cccc2c1)c1cccs1 [I.46, 3-(2-{[dimethyl(2-thienyl)silyl]methyl}phenoxy)-8-fluoroquinoline] | 90 to 100%
C[Si](C)(O)Cc1c(Cl)cccc1Oc1cnc2ccccc2c1 [I.25, [2-chloro-6-(quinolin-3-yloxy)benzyl](dimethyl)silanol] | 90 to 100%
Cc1nc2ccccc2cc1Oc1ccccc1C[Si](C)(C)C [I.05, 2-methyl-3-{2-[(trimethylsilyl)methyl]phenoxy}quinoline] | 90 to 100%

System: Pyricularia oryzae
Experiment: microbe, parasite or virus in culture
Format: cell-based
Conditions: 120 h, read-out: efficacy (inhibition of fungal growth)

Structure (SMILES) | inhibition at 20 ppm
C[Si](C)(Cc1ccccc1Oc1cnc2c(F)cccc2c1)c1cccs1 [I.46, 3-(2-{[dimethyl(2-thienyl)silyl]methyl}phenoxy)-8-fluoroquinoline] | 90 to 100%
Cc1nc2ccccc2cc1Oc1ccccc1C[Si](C)(C)C [I.05, 2-methyl-3-{2-[(trimethylsilyl)methyl]phenoxy}quinoline] | 90 to 100%

System: not listed separately
Experiment: log P determination by HPLC on reversed-phase column (C 18), EEC Directive 79/831 Annex V.A8
Format: physicochemical
Conditions: Table 1; HPLC, 40° C., 0.1% aqueous formic acid and acetonitrile
Procedure: In table 1, the log P values were determined in accordance with EEC Directive 79/831 Annex V.A8 by HPLC (High Performance Liquid Chromatography) on a reversed-phase column (C 18), using the method described below:
temperature: 40° C.; mobile phases: 0.1% aqueous formic acid and acetonitrile; linear gradient from 10% acetonitrile to 95% acetonitrile; Calibration was carried out using unbranched alkan-2-ones (comprising 3 to 16 carbon atoms) with known log P values (determination of the log P values by the retention times using linear interpolation between two successive alkanones). lambda-max-values were determined using UV-spectra from 200 nm to 400 nm and the peak values of the chromatographic signals.

Structure (SMILES) | logP
Cc1nc2ccccc2nc1Oc1ccccc1C[Si](C)(C)C [I.07] | 5.59
C[Si](C)(C)Cc1ccccc1Oc1cnc2c(F)cccc2c1 [I.10] | 5.45
C=C[Si](C)(C)Cc1ccccc1Oc1cnc2c(F)cccc2c1 [I.14] | 5.45
Cc1nc2c(F)c(F)ccc2cc1Oc1ccc(F)cc1C[Si](C)(C)C [I.34] | 5.92
C[Si](C)(C)Cc1ccccc1Oc1cnc2c(F)cccc2n1 [I.12] | 5.26
C[Si](C)(Cc1c(F)cccc1Oc1cnc2ccccc2c1)c1cccs1 [I.47] | 5.65
C[Si](C)(Cc1c(Cl)cccc1Oc1cnc2ccccc2c1)c1ccccc1 [I.53] | 6.43
C[Si](C)(C)Cc1ccccc1Nc1cnc2c(F)cccc2c1 [I.09] | 4.77
C[Si](C)(C)Cc1cc(Cl)ccc1Nc1cnc2ccccc2c1 [I.21] | 4.39
C[Si](C)(C)Cc1c(F)cccc1Oc1cnc2c(F)c(F)ccc2n1 [I.33] | 5.60
Cc1cccc2cc(Nc3ccc(Cl)cc3C[Si](C)(C)C)cnc12 [I.28] | 5.38
C[Si](C)(Cc1c(Cl)cccc1Oc1cnc2ccccc2c1)c1cccs1 [I.56] | 6.20
C[Si](C)(C)Cc1cc(Cl)ccc1Nc1cnc2c(C(F)(F)F)cccc2c1 [I.55] | 6.00
Cc1nc2c(F)c(F)ccc2nc1Oc1cccc(Cl)c1C[Si](C)(C)O [I.49] | 4.13
C=C[Si](C)(C)Cc1c(F)cccc1Oc1cnc2ccccc2c1 [I.15] | 5.57
COc1ccc([Si](C)(C)Cc2ccccc2Oc2cnc3c(F)cccc3c2)cc1 [I.59] | 5.62
C[Si](C)(Cc1ccccc1Oc1cnc2c(F)cccc2c1)c1ccccc1 [I.40] | 5.78
C[Si](C)(C)Cc1ccc(Nc2cnc3ccccc3c2)c(C[Si](C)(C)C)c1 [I.43] | 5.85
C[Si](C)(O)Cc1ccccc1Cc1cnc2ccccc2c1 [I.03] | 2.13
C[Si](C)(C)Cc1ccccc1Oc1cnc2c(C(F)(F)F)cccc2n1 [I.37] | 5.97

Structure (SMILES) | logP
Cc1nc2c(F)c(F)ccc2nc1Oc1c(F)cccc1C[Si](C)(C)C [I.36] | 5.87
C[Si](C)(C)Cc1ccccc1Oc1cnc2c(C(F)(F)F)cccc2c1 [I.35] | 6.28
C[Si](C)(Cc1cc(Cl)ccc1Nc1cnc2ccccc2c1)c1ccccc1 [I.52] | 4.69
Cc1nc2c(F)c(F)ccc2nc1Oc1ccccc1C[Si](C)(C)C [I.32] | 5.81
Cc1cccc2cc(Oc3cccc(F)c3C[Si](C)(C)C)cnc12 [I.19] | 6.70
C[Si](C)(C)Cc1ccccc1Oc1cnc2c(F)c(F)ccc2n1 [I.26] | 5.54
C[Si](C)(Cc1cc(F)ccc1Nc1cnc2ccccc2c1)c1ccccc1 [I.39] | 3.99
C[Si](C)(C)Cc1ccccc1Oc1cnc2ccccc2c1 [I.02] | 5.48
Cc1cccc2cc(Oc3ccccc3C[Si](C)(C)c3ccccc3)cnc12 [I.38] | 6.83
Cc1cccc2cc(Nc3ccc(C[Si](C)(C)C)cc3C[Si](C)(C)C)cnc12 [I.54] | 6.93
C[Si](C)(C)Cc1ccc(Nc2cnc3c(C(F)(F)F)cccc3c2)c(C[Si](C)(C)C)c1 [I.65] | 7.36
COc1ccc([Si](C)(C)Cc2c(Cl)cccc2Oc2cnc3ccccc3c2)cc1 [I.63] | 6.20
Cc1nc2ccccc2cc1Oc1ccc(F)cc1C[Si](C)(C)C [I.20] | 5.01
C[Si](C)(C)Cc1c(F)cccc1Oc1cnc2ccccc2c1 [I.11] | 5.54
Cc1nc2c(F)c(F)ccc2cc1Nc1ccccc1C[Si](C)(C)C [I.30] | 5.32
COc1ccccc1[Si](C)(C)Cc1c(F)cccc1Oc1cnc2ccccc2c1 [I.61] | 6.01
C[Si](C)(Cc1c(F)cccc1Oc1cnc2ccccc2c1)c1ccccc1 [I.41] | 5.91
C[Si](C)(C)Cc1cc(F)ccc1Nc1cnc2ccccc2c1 [I.08] | 3.69
C=C[Si](C)(C)Cc1c(Cl)cccc1Oc1cnc2ccccc2c1 [I.27] | 6.11
Cc1cccc2cc(Oc3cccc(F)c3C[Si](C)(C)c3ccccc3)cnc12 [I.51] | 6.90

Structure (SMILES) | logP
COc1ccc([Si](C)(C)Cc2c(F)cccc2Oc2cnc3ccccc3c2)cc1 [I.60] | 5.65
C[Si](C)(C)Cc1ccccc1Cc1cnc2ccccc2c1 [I.01] | 4.28
COc1ccccc1[Si](C)(C)Cc1c(Cl)cccc1Oc1cnc2ccccc2c1 [I.62] | 6.50
Cc1cccc2cc(Nc3ccc(Cl)cc3C[Si](C)(C)c3ccccc3)cnc12 [I.58] | 5.68
C[Si](C)(C)Cc1c(F)cccc1Oc1cnc2c(C(F)(F)F)cccc2n1 [I.48] | 6.04
C[Si](C)(C)Cc1cc(F)ccc1Nc1cnc2c(C(F)(F)F)cccc2c1 [I.42] | 5.54
C[Si](C)(C)Cc1c(F)cccc1Oc1cnc2c(C(F)(F)F)cccc2c1 [I.45] | 6.32
C[Si](C)(O)Cc1c(F)cccc1Oc1cnc2ccccc2c1 [I.13] | 3.15
Cc1cccc2cc(Nc3ccc(F)cc3C[Si](C)(C)c3ccccc3)cnc12 [I.50] | 4.90
C[Si](C)(C)Cc1c(Cl)cccc1Oc1cnc2ccccc2c1 [I.22] | 6.17
Cc1cccc2cc(Oc3ccccc3C[Si](C)(C)C)cnc12 [I.06] | 6.60
Cc1cccc2cc(Nc3ccc(F)cc3C[Si](C)(C)C)cnc12 [I.16] | 4.56
Cc1nc2c(F)c(F)ccc2nc1Oc1cccc(Cl)c1C[Si](C)(C)C [I.44] | 6.40
C[Si](C)(C)Cc1c(Cl)cccc1Oc1cnc2c(C(F)(F)F)cccc2n1 [I.57] | 6.51
Cc1nc2ccccc2cc1Oc1cccc(F)c1C[Si](C)(C)C [I.18] | 5.38
C[Si](C)(C)Cc1ccccc1Oc1cnc2ccccc2n1 [I.04] | 5.36
C[Si](C)(C)Cc1ccccc1Oc1cnc2c(F)c(F)ccc2c1 [I.24] | 5.72
Cc1nc2ccccc2cc1Oc1ccc(Cl)cc1C[Si](C)(C)C [I.29] | 5.71
C[Si](C)(C)Cc1ccccc1Nc1cnc2c(F)c(F)ccc2c1 [I.23] | 5.03

Same assay, conditions: reversed-phase HPLC column (C 18), Table 1; HPLC, 40° C., 0.1% aqueous formic acid and acetonitrile

Structure (SMILES) | chromatographic logP
Cc1nc2c(F)cccc2cc1Oc1ccccc1C[Si](C)(C)C [I.17, 8-fluoro-2-methyl-3-{2-[(trimethylsilyl)methyl]phenoxy}quinoline] | 5.85
C[Si](C)(Cc1ccccc1Oc1cnc2c(F)cccc2c1)c1cccs1 [I.46, 3-(2-{[dimethyl(2-thienyl)silyl]methyl}phenoxy)-8-fluoroquinoline] | 5.6
C[Si](C)(O)Cc1c(Cl)cccc1Oc1cnc2ccccc2c1 [I.25, [2-chloro-6-(quinolin-3-yloxy)benzyl](dimethyl)silanol] | 3.48
Cc1nc2ccccc2cc1Oc1ccccc1C[Si](C)(C)C [I.05, 2-methyl-3-{2-[(trimethylsilyl)methyl]phenoxy}quinoline] | 5.05

Same assay, conditions: reversed-phase HPLC column (C 18), Table 2, compounds of formula (IIa); defined as for table 1

Structure (SMILES) | chromatographic logP
ClCc1c(Cl)cccc1Oc1cnc2ccccc2c1 [IIa.01, 3-[3-chloro-2-(chloromethyl)phenoxy]quinoline] | 3.94
Fc1cccc(Oc2cnc3ccccc3c2)c1CCl [IIa.02, 3-[2-(chloromethyl)-3-fluorophenoxy]quinoline] | 3.57
Fc1cccc2cc(Oc3ccccc3CBr)cnc12 [IIa.03, 3-[2-(bromomethyl)phenoxy]-8-fluoroquinoline] | 3.58

Same assay, conditions: reversed-phase HPLC column (C 18), Table 3, compounds of formula (V); defined as for table 1

Structure (SMILES) | chromatographic logP
OCc1ccccc1Oc1cnc2c(F)cccc2c1 [V.01, {2-[(8-fluoroquinolin-3-yl)oxy]phenyl}methanol] | 2.17

Same assay, conditions: reversed-phase HPLC column (C 18), stated in preparation examples

Structure (SMILES) | chromatographic logP
Cc1nc2c(F)cccc2cc1Oc1ccccc1C[Si](C)(C)C [I.17, 8-fluoro-2-methyl-3-{2-[(trimethylsilyl)methyl]phenoxy}quinoline] | 5.85
C[Si](C)(Cc1ccccc1Oc1cnc2c(F)cccc2c1)c1cccs1 [I.46, 3-(2-{[dimethyl(2-thienyl)silyl]methyl}phenoxy)-8-fluoroquinoline] | 5.6
C[Si](C)(O)Cc1c(Cl)cccc1Oc1cnc2ccccc2c1 [I.25, [2-chloro-6-(quinolin-3-yloxy)benzyl](dimethyl)silanol] | 3.48
Fc1cccc2cc(Oc3ccccc3CBr)cnc12 [IIa.03, 3-[2-(bromomethyl)phenoxy]-8-fluoroquinoline] | 3.65
Cc1nc2ccccc2cc1Oc1ccccc1C[Si](C)(C)C [I.05, 2-methyl-3-{2-[(trimethylsilyl)methyl]phenoxy}quinoline] | 5.05
